Results from US20150359798A1, “PIPERAZINYL DERIVATIVE REDUCES HIGH-FAT DIET-INDUCED ACCUMULATION OF FAT IN THE LIVERS, […]” (priority 2011, published 2015).

What was measured:
mice fed a HFD = experiment: HFD-fed mice, 14-week experiment: body weight, liver morphology, H&E, oil globulets; format: in vivo
Experimental: (§1) In the 14-week experiment, mice were fed a HFD from week 1 to week 14. During the 3 month experiments, KMUP-1 HCl (2.5 mg) was added to 200 ml tap water and) and drink for 14 weeks or for the last 6 weeks on mice or obese mice fed HFD, separately. 5 mice had free access to drinking water from week 1 to week 14 (protective group) or from week 8 to week 14 (treatment group). Tap water was used to normalize mineral nutrition (Scheme A).
The diameter of the white bar in the photograph was standardized at 100 μM for measuring the specific diameter of oil globulets in a whole liver slice, observed by microscope, with the aid of Powerpoint PC computer software (Microsoft®, USA) and printed out by a Hewlett-Packard® printer (USA). An increase in oil globulet diameter and cell number indicated increasing liver steatosis, i.e. steaotohepatitis. In contrast, decrease in diameter and the number of fat cells indicated the inhibition of steaotohepatitis. […] Hematoxylin-eosin (H&E) and […] staining of liver were used to assess oil globulet numbers under a microscope.
Mice liver and epididymal fat pads were cut and soaked in formalin, dehydrated through graded alcohols and embedded in paraffin. Specimens of liver tissues and epididymal fat pads fixed with formalin (4%) were embedded in paraffin for one hour at 4° C., cut into […] sections, and subjected to H&E staining before examination by light microscope. In heart tissues, the 4-μm-thick paraffin sections were cut from paraffin-embedded tissue blocks and de-paraffinized by immersion in xylene and rehydrated. The slices were then dyed with H&E. After gently rinsing with water, each slide was dehydrated through graded alcohols and finally soaked in xylene twice.
Hematoxylin-eosin (H&E) and IHC staining of liver were used to assess oil globulet numbers under a microscope. A 100 μM white bar was used to determine oil globule sizes in the liver. Oil globulets in a cell were counted from larger to smaller until size limitations were reached. Increases of oil globulet diameter and number indicated increasing liver steatosis. In contrast, a decrease in oil globulet diameters and numbers could indicate the inhibition of liver steatosis. Oil globulets were measured using a Nikon Eclipse TE200-S microscope, aided by Powerpoint computer software (Microsoft®) and printed by a HP® printer to measure the diameter and number of oil globulets on paper. Counting: of oil globules was performed from larger to smaller ones until the observation reached its limit.

PKG = PKG expression and immunoreactivity in HepG2 cells; format: cell-based
SR-B1 = experiment: HFD-induced hepatic SR-B1 expression (14-week experiment); format: in vivo, mice; settings: drinking KMUP-1
Experimental: as §1
For the expression of SR-B1, HMGR, PPARγ and ROCK isolated liver tissues were cut into small chips and placed into an extraction buffer (Tris 10 mM, pH 7.0, NaCl 140 mM, PMSF 2 mM, DTT 5 mM, NP-40 0.5%, pepstatin A 0.05 mM and leupeptin 0.2 mM) for hepatic protein extraction, and centrifuged at 20,000 g for 30 minutes. The obtained protein extract was boiled to a ratio of 4:1 with a sample buffer (Tris 100 mM, pH 6.8, glycerol 20%, SDS 4% and bromophenol blue 0.2%). Electrophoresis was performed using 10% SDS-polyacrylamide gel (1 hour, 100 V, 40 mA, 20 μg protein per lane).
Separated proteins, after 3 repeated centrifugations to discard up-layer tissue lipid inpurity, were transferred to PVDF membranes treated with 5% fat-free milk powder to block the nonspecific IgGs (90 minutes, 100 V) and incubated for 1 hour with specific protein antibody. The blot was then incubated with anti-mouse or anti-goat IgG linked to alkaline phosphatase (1:1000) for 1 hour.

RhoA = RhoA translocation from cytosol to membranes in HepG2 cells; format: cell-based
Experimental: HepG2 cells were treated with various concentrations of drugs for 24 hours. Reactions were terminated by washing twice with cold PBS, and the cells were then harvested, Proteins in the whole-cell lysate were homogenized in an ice-cold lysis buffer and a protease inhibitor (Sigma-Aldrich, St. Louis, Mo., U.S.A.). The homogenate was centrifuged at 90, 000 g for 15 minutes at 4° C., and supernatant was recovered as the total cellular protein. Cytosolic and membrane fractions of HepG2 cells were prepared using a. CNM (Cytosol Nuclear Membrane) compartment protein extraction kit (BioChain Institute Inc., Hayward, Calif., U.S.A.) according to the manufacturer's instructions. All of the fractionated protein solutions were stored at −80° C. until analysis. To measure the expression levels of proteins by drugs, the total cell protein was extracted after incubation with treatments for 24 hours and then Western blotting analysis was performed as described previously.

eNOS [1] = experiment: IHC staining of eNOS in epididymal fat pads; format: in vivo, mice; settings: protection, 2.5 mg/kg/day
Experimental: (§2) For IHC of MMP-9/TNFα, HSL/p-HSL/ATGL and eNOS/IL-10, antigen retrieval of de-paraffinated sections was performed in Dako target retrieval solution, pH 9.0, in a vegetable steamer followed by the quenching of endogenous peroxidase activity with 3.0% H2O2 in methanol. Sections were then incubated with specific primary antibodies overnight at 4° C. in a humidified chamber. The antibodies used included rabbit polyclonal anti-eNOS (1:50 dilution) (Abcam, Cambridge, UK) or rabbit monoclonal anti-cleaved caspase-3 (1:50 dilution) (Cell Signaling, USA). The sections were then examined using a DAKO REAL EnVision™ Detection System kit (DAKO, Carpinteria, Calif.) and counterstained with hematoxylin. Images were obtained through a Nikon Eclipse TE200-S microscope.

PPAR-γ = experiment: Table 3 PPAR-γ (% of control); format: cell-based; settings: control group = 100 (%)
HSL = experiment: IHC staining of HSL in steatohepatitis liver; format: in vivo, mice; settings: after treatment or protection
Experimental: as §1, §2

p-HSL = experiment: IHC staining of p-HSL in steatohepatitis liver; format: in vivo, mice; settings: treatment and protection groups
Experimental: as §1, §2

eNOS [2] = experiment: Table 3 eNOS (% of control); format: cell-based; settings: control group = 100 (%)
LDLR = experiment: Fluorescence staining of LDLRs in HepG2 cells; format: cell-based
Experimental: HepG2 cells were used to determine the cellular protein expression of LDLRs in the presence of exogenous LDL (500 μg/mL) Bodipy-493/503 ([…]) overnight at 4° C., followed by merger of obtained BODIPY- and LDL-images to analyze the location of LDLRs. All images were collected and analyzed by scanning with Nikon Eclipse TE200-S microscope (Tokyo, Japan).

ATGL = experiment: IHC staining of ATGL in steatohepatitis liver; format: in vivo, mice; settings: more prominent in protection than treatment groups
Experimental: as §1, §2

SMILES: Cn1c(=O)c2c(ncn2CCN2CCN(c3ccccc3Cl)CC2)n(C)c1=O [KMUP-1, 7-[2-[4-(2-chlorophenyl)piperazinyl]ethyl]-1,3-dimethyl xanthine]
- fat globules and Mallory's hyaline bodies (H&E staining of liver) (mice fed a HFD; oral 2.5 mg/kg, last 6 weeks/14 weeks): reduced
- oil globulet number and changes of oil globulet diameter in liver (mice fed a HFD; treatment and protection groups): sharply reduced
- expression of PKG (PKG; 10, 20, 40 µM, in the presence of LDL (500 μg/mL)): increased
- PKG immunoreactivity (PKG; data not shown): not significantly affected
- HFD-induced hepatic SR-B1 expression (SR-B1): inhibit
- translocation of RhoA from cytosol to membranes (RhoA): concentration-dependently inhibited
- IHC staining of eNOS in epididymal fat pads (eNOS [1]): inhibited
- PPAR-γ (PPAR-γ; 0.1 μM): 123.5 ± 17.3%
- PPAR-γ (PPAR-γ; 1.0 μM): 135.6 ± 14.5%
- PPAR-γ (PPAR-γ; 10 μM): 142.6 ± 15.4%
- HSL (IHC, liver) (HSL): partly increased
- p-HSL (IHC, liver) (p-HSL): activation
- eNOS (eNOS [2]; 0.1 μM): 121.6 ± 16.5%
- eNOS (eNOS [2]; 1.0 μM): 132.7 ± 15.2%
- eNOS (eNOS [2]; 10 μM): 138.9 ± 15.2%
- LDLR (green fluorescence) expression (LDLR; HepG2, 24 hours, KMUP-1 10^−6, 10^−5, 10^−4 M, simvastatin 10^−5 M): increased
- LDLR fluorescence at high concentration (LDLR; HepG2, concentrations >10^−4 M, near the viability range): decline in fluoresence
- ATGL lipolysis (IHC, liver) (ATGL): induced
